Test results reported in patent US12577213B2 (NINGBO COMBIREG PHARMACEUTICAL TECHNOLOGY CO., LTD., priority 2020, dated 2026).
Where two headings read alike, the source gives them in different places.

Columns and labels:
786-0 (renal cancer) = assay: NCI method SRB growth inhibition, 786-0; format: cell-based; conditions: Homo sapiens; 786-0, treated 48 hours, SRB stain
Summary of the method: (§1)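 Cells were exposed to compound for 48 h alongside a time-zero plate fixed at dosing and a 48 h vehicle control, then stained with sulforhodamine B and read at 515 nm. GI50 is the concentration giving 50% growth relative to time-zero and vehicle ODs; TGI where test OD equals time-zero OD; LC50 where 50% of starting cells are killed.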

PC-3 (prostate cancer) = assay: NCI method SRB growth inhibition, PC-3; format: cell-based; conditions: Homo sapiens; PC-3, treated 48 hours, SRB stain
Summary of the method: as §1

LOX-IMVI (melanoma) = assay: NCI method SRB growth inhibition, LOX-IMVI; format: cell-based; conditions: Homo sapiens, treated 48 hours, SRB stain
Summary of the method: as §1

[1] = system: SF295 (central nervous system tumor); assay: NCI method SRB growth inhibition, SF295; format: cell-based; conditions: Homo sapiens, SF-295; SF295, treated 48 hours, SRB stain
Summary of the method: as §1

OVCAR-3 (ovarian cancer) = assay: NCI method SRB growth inhibition, OVCAR-3; format: cell-based; conditions: Homo sapiens; OVCAR-3, treated 48 hours, SRB stain
Summary of the method: as §1

[2] = Liver microsomes stability; format: in vitro ADME, human; conditions: for half-life at 1 μM: human, human liver microsomes
Summary of the method: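 Compound at 1 μM final incubated with 1 mg/mL human liver microsomes and 1 mM NADPH (no-NADPH control), sampled at 0, 5, 15, 30, 60 min. Remaining parent quantified by LC-MS/MS; T1/2 = 0.693/k.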

[3] = system: xenograft of human colon cancer HCT-116 in nude mice; assay: Xenograft tumor growth inhibition, HCT-116; format: in vivo, BALB/c nude mice; conditions: for Relative tumor proliferation rate (%) / Tumor weight inhibition rate (%): HCT116 xenograft; for efficacy evaluation on growth of HCT-116 xenograft (in words): criteria: T/C (%)≤40 and P<0.05 is effective
Method: The embodiment compound was prepared as a 40× stock solution of DMSO and diluted to the administered concentration with saline containing 2.5% Tween 80 (Tween 80) used before;
Male BALB/c nude mice, 4-5 weeks old, were purchased from Beijing Vital River Laboratory Animal Technology Co., Ltd, with a license No. SCXK(Beijing)2012-0001, and the mice were bred in the SPF-class laboratory animal center of Tsinghua University. The tumor lines used in the experiment were: xenograft of human lung cancer NCI-H522 in nude mice, xenograft of human colon cancer HCT-116 in nude mice.
Tumor-bearing animals with good tumor growth and overall condition were selected and sacrificed by cervical dislocation. The tumors were removed under aseptic condition, cut into tumors with 2-3 mm diameter by a scalpel, and inoculated subcutaneously behind the armpit of nude mice by trocar. The tumors grew naturally and were randomly grouped after the tumor volume grew to 105 mm^3, and the administration date of grouping was set as D0 (Day 0).
Grouping experiment, with 7-9 animals in each group, starting from now on, administration was started according to the weight of the animals. During the administration process, the long, short diameter of the tumors and weight of animals were measured every 2-3 days, and the tumor size was calculated by the formula: (½)×long diameter×(short diameter)^2, and the experiment was ended on the 27th day (D27) after grouping. At the end of the experiment, the animals were sacrificed by cervical dislocation, the tumors were peeled off and weighed, and the inhibitory rates of the drugs on tumor growth were calculated. Tumor volume (TV) and relative tumor volume (RTV) were calculated. T test was used to compare the statistical significance of the differences in tumor weight, tumor volume and RTV of the animals in each group.
Calculation formulas are as follows: average tumor weight in the vehicle control group−average tumor weight in the treatment group Tumor inhibition rate (%)=(average tumor weight in the vehicle control group−average tumor weight in the treatment group)[…](average tumor weight in the vehicle control)×100. Tumor volume (TV)=(length×width^2)/2. Relative tumor volume (RTV)=Vt/Vo (wherein, Vo is the TV measured at the time of grouping and administration, and Vt is the TV at each subsequent measurement).
[formula] • Efficacy evaluation criteria: T/C (%)>40 is invalid; • T/C (%)≤40, and P<0.05 is effective after statistical processing. 4.

[4] = 1 μM compound, 1 mg/mL human liver microsomes, 1 mM NADPH
[5] = 1 μM compound, 1 mg/mL human liver microsomes, 1 mM NADPH, read-out: T½ of HLM
[6] = as repeated in Table 4, read-out: T½ of HLM (in vitro)
[7] = 20 mg/kg, intravenous injection every other day × 3
[8] = 16 mg/kg, intravenous injection every other day × 9
[9] = 20 mg/kg, intravenous injection every other day × 9

| microsomal CLint at 1 μM [2, 4] [µL/min/mg] | half-life at 1 μM [2, 5] [h] | half-life at 1 μM [2, 6] [h] | Compound | GI50 (786-0 (renal cancer)) [nM] | GI50 (PC-3 (prostate cancer)) [nM] | GI50 (LOX-IMVI (melanoma)) [nM] | GI50 [1] [nM] | GI50 (OVCAR-3 (ovarian cancer)) [nM] | Relative tumor proliferation rate (%) [3, 7] [%] | Tumor weight inhibition rate (%) [3, 7] [%] | efficacy evaluation on growth of HCT-116 xenograft (in words) [3] | Relative tumor proliferation rate (%) [3, 8] [%] | Tumor weight inhibition rate (%) [3, 8] [%] | Relative tumor proliferation rate (%) [3, 9] [%] | Tumor weight inhibition rate (%) [3, 9] [%] |
| --- | --- | --- | --- | --- | --- | --- | --- | --- | --- | --- | --- | --- | --- | --- | --- |
| 3.2 | 3.62 | 3.62 | [2H]C([2H])([2H])Oc1cc(C(=O)Nc2cc3c(cc2Oc2cc(C)cc(C)c2)C(=O)N[C@@H](CC(=O)N(C([2H])([2H])C([2H])([2H])[2H])C([2H])([2H])C([2H])([2H])[2H])C(=O)N3)c(Br)c(OC([2H])([2H])[2H])c1OC([2H])([2H])[2H] [Compound 5, (S)-2-bromo-N-[3-[2-[bis(pentadeuteroethyl)amino]-2-oxoethyl]-7-(3,5-dimethylphenoxy)-2,5-dioxo-2,3,4,5-tetrahydro-1H-benzo[e][1,4]diazepin-8-yl]-3,4,5-tris(trideuteromethoxy)benzamide] | 26.1 | < 5 | < 5 | 17.4 | < 5 | 34 | 69.6 | inhibit the growth | – | – | – | – |
| 11.6 | 0.948 | 0.997 | [2H]C([2H])([2H])Oc1cc(C(=O)Nc2cc3c(cc2Oc2cc(C)cc(C)c2)C(=O)N(C)[C@@H](CC(=O)N(C)C)C(=O)N3)c(Br)c(OC([2H])([2H])[2H])c1OC([2H])([2H])[2H] [Compound 16, (S)-2-bromo-N-[3-[2-(dimethylamino)-2-oxoethyl]-7-(3,5-dimethylphenoxy)-4-methyl-2,5-dioxo-2,3,4,5-tetrahydro-1H-benzo[e][1,4]diazepin-8-yl]-3,4,5-tris(trideuteromethoxy)benzamide] | 11.2 | < 5 | < 5 | 7.6 | < 5 | – | – | inhibit the growth | 38 | 63.4 | – | – |
| 2.1 | 5.5 | 5.5 | [2H]C([2H])([2H])Oc1cc(C(=O)Nc2cc3c(cc2Oc2cc(C)cc(C)c2)C(=O)N[C@@H](CC(=O)N(C)C)C(=O)N3)c(Br)c(OC([2H])([2H])[2H])c1OC([2H])([2H])[2H] [Compound 20, (S)-2-bromo-N-[3-[2-(dimethylamino)-2-oxoethyl]-7-(3,5-dimethylphenoxy)-2,5-dioxo-2,3,4,5-tetrahydro-1H-benzo[e][1,4]diazepin-8-yl]-3,4,5-tris(trideuteromethoxy)benzamide] | 26.5 | < 5 | < 5 | 19.9 | < 5 | – | – | inhibit the growth | – | – | 30 | 75.4 |
